According to patent publication US20140023611A1 (priority 2010, published 2014):

Molecular target: T1, rat NaP2b (SLC34A2) (Rattus norvegicus, UniProt Q9JJ09)
T1 construct: host or cells: HEK293
T1 sequence (Q9JJ09 1-695): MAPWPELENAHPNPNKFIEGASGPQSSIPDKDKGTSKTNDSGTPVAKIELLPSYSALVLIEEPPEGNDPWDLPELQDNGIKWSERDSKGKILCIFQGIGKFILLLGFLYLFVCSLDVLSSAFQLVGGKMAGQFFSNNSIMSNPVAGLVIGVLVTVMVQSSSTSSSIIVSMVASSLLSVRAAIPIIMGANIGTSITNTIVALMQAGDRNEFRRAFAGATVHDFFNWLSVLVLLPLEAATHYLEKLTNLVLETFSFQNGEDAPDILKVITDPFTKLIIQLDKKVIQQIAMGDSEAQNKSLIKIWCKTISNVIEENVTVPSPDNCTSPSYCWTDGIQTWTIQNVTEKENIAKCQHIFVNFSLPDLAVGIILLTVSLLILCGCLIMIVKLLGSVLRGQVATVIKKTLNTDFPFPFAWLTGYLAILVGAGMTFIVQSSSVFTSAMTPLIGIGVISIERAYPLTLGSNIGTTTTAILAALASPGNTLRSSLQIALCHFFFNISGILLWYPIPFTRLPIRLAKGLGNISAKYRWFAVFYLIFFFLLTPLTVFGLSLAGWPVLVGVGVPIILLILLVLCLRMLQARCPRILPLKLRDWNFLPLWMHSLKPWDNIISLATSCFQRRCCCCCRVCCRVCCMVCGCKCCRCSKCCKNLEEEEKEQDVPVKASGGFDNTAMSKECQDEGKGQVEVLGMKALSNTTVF
Assay: Inhibition of NaP2b-mediated Pi (33P) uptake in transfected HEK293 cells, rat NaP2b
Assay type: cell-based
Conditions: 33P Pi uptake, 0.1 mM phosphate, value given as pIC50 range
Procedure, shortened: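 HEK293 cells were transiently transfected with NaP2b cDNA using Lipofectamine and grown near confluence. Compounds were tested at twelve concentrations from 0.1 nM to 30 uM in duplicate, and 33P-phosphate uptake was counted by scintillation after lysis. Results are expressed as pIC50.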

Compared with CN(CCN1CCOCC1)C(=O)c1cccc(C(=O)Nc2ccc(N3CCN(c4ncccn4)CC3)cc2-c2cc(C(=O)NCc3cccc(C(F)(F)F)c3)ccn2)c1 [Example 96], CN(CCN1CCOCC1)C(=O)c1cccc(C(=O)Nc2ccc(N3CCSCC3)cc2-c2cc(C(=O)NCc3cccc(C(F)(F)F)c3)ccn2)c1 [Example 118] is lower in IC50: 10 to 31.6 µM for the first, 1 to 7.94 µM for the second.

O=C(O)CCSCc1cccc(C(=O)Nc2ccc(N3CCCCC3)cc2-c2cc(OCc3cccc(C(F)(F)F)c3)ccn2)c1 [Example 98] and CN(CCN1CCOCC1)C(=O)c1cccc(C(=O)Nc2ccc(N3CCCCC3)cc2-c2cc(OCc3cccc(C(F)(F)F)c3)ccn2)c1 [Example 99] fall in the same range of IC50: 10 to 31.6 µM for the first, 10 to 31.6 µM for the second.

CC(C)OCCOc1ccc(NC(=O)c2cccc(C(=O)N(C)CCN3CCOCC3)c2)c(-c2cc(C(=O)NCc3cccc(C(F)(F)F)c3)ccn2)c1 [Example 101] and CCCN(CCC)c1ccc(NC(=O)c2cccc(C(=O)N(C)CCN3CCOCC3)c2)c(-c2cc(C(=O)NCc3cccc(C(F)(F)F)c3)ccn2)c1 [Example 116] fall in the same range of IC50: 1 to 7.94 µM for the first, 1 to 7.94 µM for the second.

COC[C@@H]1CCCN1c1ccc(NC(=O)c2cccc(C(=O)N(C)CCN3CCOCC3)c2)c(-c2cc(C(=O)NCc3cccc(C(F)(F)F)c3)ccn2)c1 [Example 102] and COC[C@H]1CCCN1c1ccc(NC(=O)c2cccc(C(=O)N(C)CCN3CCOCC3)c2)c(-c2cc(C(=O)NCc3cccc(C(F)(F)F)c3)ccn2)c1 [Example 103] fall in the same range of IC50: 10 to 31.6 µM for the first, 10 to 31.6 µM for the second.

CN(CCN1CCOCC1)C(=O)c1cccc(C(=O)Nc2ccc(N3CCCCC3)cc2-c2cc(NCc3cccc(C(F)(F)F)c3)ccn2)c1 [Example 104] and CN(CCN1CCOCC1)C(=O)c1cccc(C(=O)Nc2ccc(N3CCCCC3)cc2-c2cc(C(F)(F)CCc3cccc(C(F)(F)F)c3)ccn2)c1 [Example 106] fall in the same range of IC50: 10 to 31.6 µM for the first, 10 to 31.6 µM for the second.

C[C@H]1CCCCN1c1ccc(NC(=O)c2cccc(C(=O)N(C)CCN3CCOCC3)c2)c(-c2cc(C(=O)NCc3cccc(C(F)(F)F)c3)ccn2)c1 [Example 105] and CN(CCN1CCOCC1)C(=O)c1cccc(C(=O)Nc2ccc(N3CCC[C@H]4CCCC[C@@H]43)cc2-c2cc(C(=O)NCc3cccc(C(F)(F)F)c3)ccn2)c1 [Example 114] fall in the same range of IC50: 1 to 7.94 µM for the first, 1 to 7.94 µM for the second.

CN(CCN1CCOCC1)C(=O)c1cccc(C(=O)Nc2ccc(N3CCC(C)(C)CC3)cc2-c2cc(C(=O)NCc3cccc(C(F)(F)F)c3)ccn2)c1 [Example 108] and CN(CCN1CCOCC1)C(=O)c1cccc(C(=O)Nc2ccc(N3CC[C@H]4CCCC[C@@H]4C3)cc2-c2cc(C(=O)NCc3cccc(C(F)(F)F)c3)ccn2)c1 [Example 111] fall in the same range of IC50: 10 to 31.6 µM for the first, 10 to 31.6 µM for the second.

CN(CCN1CCOCC1)C(=O)c1cccc(C(=O)Nc2ccc(N3CCCCC3)cc2-c2cc(SCc3ccccc3)ccn2)c1 [Example 109] and COc1cc(C(F)(F)F)ccc1CNC(=O)c1ccnc(-c2cc(N3CCCCC3)ccc2NC(=O)c2cccc(C(=O)N(C)CCN3CCOCC3)c2)c1 [Example 121, N1-(2-(4-((2-methoxy-4-(trifluoromethyl)benzyl)carbamoyl)pyridin-2-yl)-4-(piperidin-1-yl)phenyl)-N3-methyl-N3-(2-morpholinoethyl)isophthalamide] fall in the same range of IC50: 1 to 7.94 µM for the first, 1 to 7.94 µM for the second.

CN(CCc1ccccn1)C(=O)c1cccc(C(=O)Nc2ccc(N3CCCCC3)cc2-c2cc(C(=O)NCc3cccc(C(F)(F)F)c3)ccn2)c1 [Example 110] and O=C(O)CCCC1CCN(C(=O)c2cccc(C(=O)Nc3ccc(N4CCCCC4)cc3-c3cc(C(=O)NCc4cccc(C(F)(F)F)c4)ccn3)c2)CC1 [Example 112] fall in the same range of IC50: 1 to 7.94 µM for the first, 1 to 7.94 µM for the second.

O=C(O)CCCC1CCN(C(=O)CCCC2CCN(C(=O)c3cccc(C(=O)Nc4ccc(N5CCCCC5)cc4-c4cc(C(=O)NCc5cccc(C(F)(F)F)c5)ccn4)c3)CC2)CC1 [Example 113] and CN(C)c1ccc(NC(=O)c2cccc(CSCCC(=O)O)c2)c(-c2cc(C(=O)NCc3cccc(C(F)(F)F)c3)ccn2)c1 [Example 120] fall in the same range of IC50: 1 to 7.94 µM for the first, 1 to 7.94 µM for the second.

O=C(O)Cc1cccc(SCc2cccc(C(=O)Nc3ccc(Cl)cc3-c3cc(C(=O)NCc4cccc(C(F)(F)F)c4)ccn3)c2)c1 [Example 119] gave an IC50 of under 1 µM.
